In the supplement of paper PMC8671470:

Test system: myeloid leukemia patient primary cells Pat.7
Experiment: cell viability (% survival relative to DMSO control); higher = less cytotoxic
Conditions: 10 nM; 72 h
How it was run: (§1)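 Thawed mononuclear cells from AML or CML patients were purified on Ficoll and cultured for 72 h in RPMI 1640 with 10% FBS, at 10,000 cells/well, on 384-well plates carrying 70 pre-printed compounds at 1–10,000 nM in five tenfold steps, in duplicate. Viability came from CellTiter-Glo, normalised against DMSO and against 10 μM proteasome inhibitor. Any area under the curve given was derived from log-logistic curve fits in the drc and PharmacoGx R packages, and these fits had four parameters.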

Compound | cell viability
c1ccc2c(c1)SCc1c-2[nH]c2ccccc12 | 72.5%
CCC(CC#N)OC(=O)N[C@@H](C)c1cccc(NC(=O)Nc2ccc(-c3cnco3)c(OC)c2)c1 (stereo in doubt) [AVN-944] | 91.5%
Oc1ncc(F)c(O)n1 [5-fluorouracil] | 83.9%
CN(C)CCNC(=O)c1cccn2c(=O)c3cc4ccccc4cc3nc12 [Bmh-21] | 82.6%

Same assay, conditions: 100 nM; 72 h

Compound | cell viability
O=C(c1c2ccccc2cc2ccccc12)N1CCC(N2CCC[C@@H](C(=O)N3CCOCC3)C2)CC1 | 87.3%
c1ccc2c(c1)SCc1c-2[nH]c2ccccc12 | > 100%
CCC(CC#N)OC(=O)N[C@@H](C)c1cccc(NC(=O)Nc2ccc(-c3cnco3)c(OC)c2)c1 (stereo in doubt) [AVN-944] | 25.3%
Oc1ncc(F)c(O)n1 [5-fluorouracil] | 82.8%
CN(C)CCNC(=O)c1cccn2c(=O)c3cc4ccccc4cc3nc12 [Bmh-21] | 92.7%

Same assay, conditions: 1000 nM; 72 h

Compound | cell viability
O=C(c1c2ccccc2cc2ccccc12)N1CCC(N2CCC[C@@H](C(=O)N3CCOCC3)C2)CC1 | 19%
c1ccc2c(c1)SCc1c-2[nH]c2ccccc12 | 41.6%
CCC(CC#N)OC(=O)N[C@@H](C)c1cccc(NC(=O)Nc2ccc(-c3cnco3)c(OC)c2)c1 (stereo in doubt) [AVN-944] | 17.6%
Oc1ncc(F)c(O)n1 [5-fluorouracil] | 92.8%
CN(C)CCNC(=O)c1cccn2c(=O)c3cc4ccccc4cc3nc12 [Bmh-21] | 14.1%

Same assay, conditions: 10000 nM; 72 h

Compound | cell viability
O=C(c1c2ccccc2cc2ccccc12)N1CCC(N2CCC[C@@H](C(=O)N3CCOCC3)C2)CC1 | 76.8%
c1ccc2c(c1)SCc1c-2[nH]c2ccccc12 | < 0%
CCC(CC#N)OC(=O)N[C@@H](C)c1cccc(NC(=O)Nc2ccc(-c3cnco3)c(OC)c2)c1 (stereo in doubt) [AVN-944] | < 0%
Oc1ncc(F)c(O)n1 [5-fluorouracil] | 50.8%
CN(C)CCNC(=O)c1cccn2c(=O)c3cc4ccccc4cc3nc12 [Bmh-21] | 4.95%

Test system: myeloid leukemia patient primary cells Pat.3
Experiment: as above
Conditions: 1 nM; 72 h
How it was run: as §1

Compound | cell viability
O=C(c1c2ccccc2cc2ccccc12)N1CCC(N2CCC[C@@H](C(=O)N3CCOCC3)C2)CC1 | > 100%
c1ccc2c(c1)SCc1c-2[nH]c2ccccc12 | 96.1%
CCC(CC#N)OC(=O)N[C@@H](C)c1cccc(NC(=O)Nc2ccc(-c3cnco3)c(OC)c2)c1 (stereo in doubt) [AVN-944] | > 100%
Oc1ncc(F)c(O)n1 [5-fluorouracil] | 90.4%
CN(C)CCNC(=O)c1cccn2c(=O)c3cc4ccccc4cc3nc12 [Bmh-21] | 94.4%

Same assay, conditions: 10 nM; 72 h

Compound | cell viability
O=C(c1c2ccccc2cc2ccccc12)N1CCC(N2CCC[C@@H](C(=O)N3CCOCC3)C2)CC1 | 96.9%
c1ccc2c(c1)SCc1c-2[nH]c2ccccc12 | 76.1%
CCC(CC#N)OC(=O)N[C@@H](C)c1cccc(NC(=O)Nc2ccc(-c3cnco3)c(OC)c2)c1 (stereo in doubt) [AVN-944] | 80.4%
Oc1ncc(F)c(O)n1 [5-fluorouracil] | 96.5%
CN(C)CCNC(=O)c1cccn2c(=O)c3cc4ccccc4cc3nc12 [Bmh-21] | 90.3%

Same assay, conditions: 100 nM; 72 h

Compound | cell viability
O=C(c1c2ccccc2cc2ccccc12)N1CCC(N2CCC[C@@H](C(=O)N3CCOCC3)C2)CC1 | > 100%
c1ccc2c(c1)SCc1c-2[nH]c2ccccc12 | 89.8%
CCC(CC#N)OC(=O)N[C@@H](C)c1cccc(NC(=O)Nc2ccc(-c3cnco3)c(OC)c2)c1 (stereo in doubt) [AVN-944] | 51.2%
Oc1ncc(F)c(O)n1 [5-fluorouracil] | 94.5%
CN(C)CCNC(=O)c1cccn2c(=O)c3cc4ccccc4cc3nc12 [Bmh-21] | 88.3%

Same assay, conditions: 1000 nM; 72 h

Compound | cell viability
O=C(c1c2ccccc2cc2ccccc12)N1CCC(N2CCC[C@@H](C(=O)N3CCOCC3)C2)CC1 | 52.6%
c1ccc2c(c1)SCc1c-2[nH]c2ccccc12 | 2.3%
CCC(CC#N)OC(=O)N[C@@H](C)c1cccc(NC(=O)Nc2ccc(-c3cnco3)c(OC)c2)c1 (stereo in doubt) [AVN-944] | 29.3%
Oc1ncc(F)c(O)n1 [5-fluorouracil] | 96.6%
CN(C)CCNC(=O)c1cccn2c(=O)c3cc4ccccc4cc3nc12 [Bmh-21] | 12.1%

Same assay, conditions: 10000 nM; 72 h

Compound | cell viability
O=C(c1c2ccccc2cc2ccccc12)N1CCC(N2CCC[C@@H](C(=O)N3CCOCC3)C2)CC1 | 78.8%
c1ccc2c(c1)SCc1c-2[nH]c2ccccc12 | < 0%
CCC(CC#N)OC(=O)N[C@@H](C)c1cccc(NC(=O)Nc2ccc(-c3cnco3)c(OC)c2)c1 (stereo in doubt) [AVN-944] | 20%
Oc1ncc(F)c(O)n1 [5-fluorouracil] | 41.9%
CN(C)CCNC(=O)c1cccn2c(=O)c3cc4ccccc4cc3nc12 [Bmh-21] | 3.46%

Test system: myeloid leukemia patient primary cells Pat.6
Experiment: as above
Conditions: 1 nM; 72 h
How it was run: as §1

Compound | cell viability
O=C(c1c2ccccc2cc2ccccc12)N1CCC(N2CCC[C@@H](C(=O)N3CCOCC3)C2)CC1 | 99.8%
c1ccc2c(c1)SCc1c-2[nH]c2ccccc12 | 98.8%
CCC(CC#N)OC(=O)N[C@@H](C)c1cccc(NC(=O)Nc2ccc(-c3cnco3)c(OC)c2)c1 (stereo in doubt) [AVN-944] | 97.1%
Oc1ncc(F)c(O)n1 [5-fluorouracil] | > 100%
CN(C)CCNC(=O)c1cccn2c(=O)c3cc4ccccc4cc3nc12 [Bmh-21] | 96.4%

Same assay, conditions: 10 nM; 72 h

Compound | cell viability
O=C(c1c2ccccc2cc2ccccc12)N1CCC(N2CCC[C@@H](C(=O)N3CCOCC3)C2)CC1 | 96.8%
c1ccc2c(c1)SCc1c-2[nH]c2ccccc12 | 82.9%
CCC(CC#N)OC(=O)N[C@@H](C)c1cccc(NC(=O)Nc2ccc(-c3cnco3)c(OC)c2)c1 (stereo in doubt) [AVN-944] | 90.8%
Oc1ncc(F)c(O)n1 [5-fluorouracil] | 96.6%
CN(C)CCNC(=O)c1cccn2c(=O)c3cc4ccccc4cc3nc12 [Bmh-21] | > 100%

Same assay, conditions: 100 nM; 72 h

Compound | cell viability
O=C(c1c2ccccc2cc2ccccc12)N1CCC(N2CCC[C@@H](C(=O)N3CCOCC3)C2)CC1 | 96.6%
c1ccc2c(c1)SCc1c-2[nH]c2ccccc12 | 95%
CCC(CC#N)OC(=O)N[C@@H](C)c1cccc(NC(=O)Nc2ccc(-c3cnco3)c(OC)c2)c1 (stereo in doubt) [AVN-944] | 92.9%
Oc1ncc(F)c(O)n1 [5-fluorouracil] | 95.8%
CN(C)CCNC(=O)c1cccn2c(=O)c3cc4ccccc4cc3nc12 [Bmh-21] | > 100%
